Source: US20170049739A1, “PROSTACYCLIN COMPOUNDS, COMPOSITIONS AND METHODS OF USE THEREOF” (INSMED INCORPORATED, priority 2013, published 2017)
“Also recorded” adds a separate entry of the source.

Assays:
[1] = Treprostinil alkyl ester conversion to treprostinil in rat lung tissue homogenate; format: in vitro ADME; details: 37° C., 200 nM, 10 mg/mL of protein, 4 hours
Experimental: Treprostinil alkyl ester conversion to treprostinil was also measured in the presence of rat, dog and monkey lung tissue homogenate at 37° C. Mere, data were calculated based on fit of exponential increase to the maximum (experiments performed in duplicate). The results of this study are provided below in Table 2A and FIG. 37. […] Both FIG. 37 experiments (left and right graphs) were performed in duplicate and the lines represent nonlinear exponential regression assuming 1 phase decay.

[2] = Particle size characterization of treprostinil compositions (QELS); format: physicochemical; details: particles of compositions comprising the alkyl ester (FIG. 2)
Experimental: All particle size measurements were performed using a Wyatt Technology Mobius™ Zeta Potential/ Particle Sizing Instrument in Quasi-elastic light scattering (QELS) mode. Composition aiiquots were diluted 10-fold in pre-filtered (0.02 μm pore filter) ultrapure of deionized H2O. Light scattering data was collected and converted into particle size and size distribution using Dynamics® v. […] Reported average particle size diameter is based on the cumulants model, which mathematically fits particle diffusion constants (determined by the raw scattering intensities of particles in a suspension) to obtain the particle size mean and a distribution of particle sizes around the mean diameter.
Particle uniformity was determined using the software-calculated polydispersity (% PD). Polydispersity is defined as the standard deviation of the particle size distribution from the mean particle size value. % PD normalizes the polydispersity to the mean diameter by dividing by the mean size and multiplylng by 100. These parameters indicate whether a particle suspension has one or more size populations of particles (monomodal versus multimodal). […]
Dynamics® polydispersity parameter represents a monodisperse population of particles if % PD≦15. A calculated % PD≧57% represents a polydisperse population of particles.

EP2 prostanoid receptor = biological target: T1, EP2 prostanoid receptor (Homo sapiens, UniProt P43116); experiment: GloSensor cAMP assay in CHO-K1 cells co-transfected with the EP2 receptor; format: cell-based; details: for change of potency with incubation time / release profile: dose response curves at 0.5 to 8 hr incubation
T1 construct: host or cells: CHO-K1 cells, transiently co-transfected with pGloSensor-22F cAMP plasmid and pGEM-3Zf(+)
Excerpt: cAMP is a second messenger involved in signal transduction of G-protein coupled receptors (GPCRs) acting through Ga-s and Ga-i proteins. Because the treprostinil receptor is a GPCR, the assay provides an indication of whether the respective prostacyclin compound (or metabolite thereof) binds its receptor and activates the GPCR cell signaling cascade. The GloSensorTM assay harnesses a genetically modified form of firefly luciferase into which a cAMP-binding protein moiety has been inserted. Upon binding of cAMP, a conformational change is induced leading to increased light output. The EP2 prostanoid receptor was co-transfected with the GloSensorTM plasmid (Promega) into CHG-K1 cells as follows. CHO-K1 cells were harvested when the monoloayer was at 50-90% confluence. First, cells were washed with 5 mL PBS. […] The media was aspirated, and the cell pellet was resuspended in 10 mL of growth media. Cell number was determined using a hemacytometer. Each well of a culture treated 96 […] bottom plate (Costar, Cat #: 3917) was seeded with 1×10^4 cells per 100 μL antibiotic-free growth media. […] For small scale transfections of up to 20 wells, the pGLoSensor-22F cAMP plasmid (Promega, Cat #: E2301) (2 μg): (EP2) (10 ng) (Origene, Cat #: SC126558) : pGEM-3Zf(+) (10 ng) (Promega, Cat #: P2271) ratio was diluted to a final concentration of 12.6 ng/μL (total plasmid) in Opti-MEM I reduced-serum medium (Life Technologies, Cat #: 1985062). Next, 6 μL of FuGENE HD transfection reagent (Promega, Cat #: E2311) was added to 160 μL of diluted plasmid and mixed carefully by gentle pipetting. The complex was incubated at room temperature for 0 to 10 minutes, and then 8 μL of the complex was added per well of a 96 well white assay plate (Costar, Cat #: 3917) and gently mixed without disturbing the cell monolayer. […] Following incubation, cells were treated and analyzed. For larger scale transfections, the aforementioned steps were scaled up accordingly, and cells were frozen following the last incubation. In order to prepare frozen transfected CHO-K1 cells, the media was aspirated from culture flasks and cells were rinsed with 5 mL PBS. […] Cell number was determined using a hemacytometer. The media was aspirated, and the cell pellet was resuspended in freezing media (Millipore, cat #: S-002-5F) at 2.5×10^6 cells/vial. Transfected cells were incubated overnight at -80° C. before transfer to liquid nitrogen for long term storage. […] In preparation for cAMP measurement, the cells were equilibrated with the GloSensor cAMP reagent prior to treatment. For equilibration, the medium was carefully removed from the individual well. Next, 100 μL of equilibration medium (6% v/v of Glosensor Reagent stock solution (Promega, Cat #: E291), 10% FBS (Hyclone, Cat #: SH30071.03) and 88% CO2 independent medium (Life Technologies, Cat #: 18045088)) was added per well of the 96-well plate, and added to the side of each well. The plate was then incubated for 2 hours at room temperature. A first pre-read measurement was taken using a microplate reader (MicroLumat Plus). Plates were incubated for an additional 10 minutes at room temperature, followed by a second pre-read measurement. […] Following treatment, each plate was read every 5 minutes for the duration of the assay using a microplate reader (MicroLumat Plus). In order to determine the fold change in cAMP relative to the control, the transfection efficiency was first determined by dividing the second pre-read measurement by the average of the corresponding pre-read measurements. Next, the normalized relative light units (RLUs) of the samples were determined by dividing the plate read measurement by the transfection efficiency. The fold change in cAMP relative to the control was then determined by dividing the normalized RLU of the samples by the normalized RLU of the control. […] Results from the three highest concentrations are provided at FIG. 3A (10 μM), FIG. 3B (1 μM) and FIG. 3C (0.1 μM). […]

physchem = details: organic solvent or mixture, thermodynamic from solid
Experimental: Selected treprostinil derivatives were evaluated for the use in a metered dose inhaler (MDI).
5 mg of each treprostinil compound was added in a glass bottle. Specific amount of ethanol was added by weight. An MDI valve was crimped to each bottle, and HFA propellant added through the valve to the total volume of 5 mL. Compounds were allowed to dissolve for 24 hours at room temperature. The formulations were assessed visually for solubility. The goal was to estimate the minimum ethanol concentration required to solubilize each compound in propellant.
Soluble samples presented as clear and colorless solutions. […] Non-soluble samples had white precipitate or crystals formed. Ethanol was added as a solubility aid.

[3] = Treprostinil pharmacokinetics in anaesthetised, ventilated rats after nebulized dosing; format: in vivo, rat; details: nebulized solution
Experimental: Male Sprague Dawley rats wrere anaesthetised and prepared with endotracheal tube for ventilation. The right femoral vein was cannulated to facilitate blood collections. Terminal lung samples were taken for analysis only 6 hours after dosing. […] Systemic blood pressure (mSAP), heart rate (HR), and arterial oxygen saturation (SaO2). Physiologic parameters were measured during normoxia (fraction of inspired oxygen [FrO2]=0.21, SaO2 ≈90%) and for 2 to 3 hours during hypoxia (FrO2=0.10, SaO2≈50%).

[4] = dog, in vivo
Experimental: Twelve beagle dogs of either sex were randomly assigned to different inhaled doses of treprostinil in PBS or the compound of Formula (A) wherein R2=
Formulations were nebulized with an Aeroneb nebulizer (MMAD: 2.5-4 μm) delivered into a 500 ml expansion chamber. Formulations were nebulized for 2 min at ventilator settings of 90 ml/breath, 15 breaths/min (delivered volume=2.7 L) and collected on a filter. Drug amount (μg) on the filter was measured by HPLC to calculate the concentration of drug delivered through the ventilator circuit (μg/L).
Dosimetry was performed in propofol-anesthetized dogs in which nebulized drugs were introduced into a mixing chamber interposed on the inspiratory limb of a canine respirator. Technical trials were performed before each experiment to measure the concentration of drug (μg/L) delivered for each breath. The inhaled drug dose (μg/kg) was calculated using the formula: Inhaled Drug Dose (μg/kg)=Drug Cone. (μg/L)×Minute Ventilation (L/min.)×Time (min.)/Body Weight (kg).
Dosimetry was performed in propofol-anesthetized, artificially ventilated dogs in which nebulized drugs were introduced into a mixing chamber interposed on the inspiratory limb of the respirator. Technical trials were performed before each experiment measuring the concentration of drug (μg/L) per breath, minute ventilation and time required to achieve a targeted pulmonary dose. […] Clinical signs (cough, rapid shallow breathing, emesis and pale gums) were also monitored.

cough reflex = experiment: Cough reflex in guinea pigs exposed to aerosols; format: in vivo, guinea pig
Experimental: has the following components: Aerosols were generated with an Ultra-Neb Pro nebulizer (nebulizer output 0.36 mL/min.) that was mixed with inspired air delivered at a rate of 2 L/min. […] Coughs were detected by visual observations, plethysmograph recordings and cough sounds.

[5] = rat, in vivo
Experimental: Nebulized treprostinil (TRE) solution and treprostinil alkyl ester formulations were administered (at 15 nmol/kg, or […] TRE equivalent) to anaesthetised-ventilated rats (6-hour studies) or to conscious rats by nose-only inhalation (24-hour studies). Blood and lung samples were collected at specified time points. TRE and treprostinil alkyl ester concentrations in blood plasma and lung tissue were measured by HPLC/MS/MS analysis.
Male Sprague Dawley rats were placed in restraining tubes and exposed to nebulised drugs via the Jaeger-NYU Nose-Only Directed-Flow Inhalation Exposure System (CH Technologies, Westwood, N.J.) (FIG. 31), Test articles (6 mL at specific concentration) were nebulised using the Aeroneb nebuliser to deliver a predetermined estimated pulmonary dose. Blood and lung tissue samples were taken at selected times after nebulization of the drags over a 24-hour period.

[6] = Tolerability and pharmacokinetics in rats after 14 consecutive days of inhaled C16-TR (T748); format: in vivo, rat; details: T748, 0.6-18 μg/kg inhaled
Experimental: Body weights were recorded daily and organ weights (lungs, heart, liver) were measured 24 hr, after the last drug dose.

[7] = nebulized concentration of 30 μg/mL

T1 sequence (P43116 whole entry): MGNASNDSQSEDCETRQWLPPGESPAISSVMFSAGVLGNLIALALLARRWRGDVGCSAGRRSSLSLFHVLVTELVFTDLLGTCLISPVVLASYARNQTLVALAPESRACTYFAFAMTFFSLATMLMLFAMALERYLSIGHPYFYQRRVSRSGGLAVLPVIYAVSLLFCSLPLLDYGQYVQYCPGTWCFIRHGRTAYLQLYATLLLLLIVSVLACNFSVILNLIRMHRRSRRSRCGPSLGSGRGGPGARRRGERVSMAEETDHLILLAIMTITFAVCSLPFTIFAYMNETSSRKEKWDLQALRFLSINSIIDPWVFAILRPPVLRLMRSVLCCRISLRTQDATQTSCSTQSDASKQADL

**Q.** For `CCCCCCCCCCCCCCOC(=O)COc1cccc2c1C[C@H]1C[C@@H](O)[C@H](CC[C@@H](O)CCCCC)[C@H]1C2` [C14-TR, tetradecyl-treprostinil], which “Rate of treprostinil alkyl ester conversion” value [1] is on record?
**A.** 0.4 nmOL/h * g of protein

**Q.** What about the “polydispersity (% PD)” value [2] of the same compound?
**A.** around 15 % PD

**Q.** And the “change of potency with incubation time / release profile” value (EP2 prostanoid receptor)?
**A.** increases with incubation time

**Q.** What about the solubility at 24 h (physchem) of the same compound?
**A.** < 1000 µg/mL

**Q.** What about the solubility at 24 h (physchem; Solubility in HFA-134a with added ethanol) of the same compound?
**A.** < 1000 µg/mL

**Q.** With `CCCCC[C@H](O)CC[C@@H]1[C@H]2Cc3cccc(OCC(=O)O)c3C[C@H]2C[C@H]1O` [Treprostinil, (1R,2R,3aS,9aS)-[[2,3,3a,4,9,9a-hexahydro-2-hydroxy-1-[(3S)-3-hydroxyoctyl]-1H-benz[f]inden-5-yl]oxy]acetic acid] as the compound, how does the “time for which cAMP level was sustained” value (EP2 prostanoid receptor; 10 μM, FIG. 3A) read?
**A.** not exhibited

**Q.** And the “Max cAMP level (Fold)” value (EP2 prostanoid receptor; compositions shown in FIG. 3, 8 hours time course)?
**A.** ~16 Fold

**Q.** And the “Max cAMP level (Fold)” value (EP2 prostanoid receptor; compositions shown in FIG. 4, 5 μM, 8 hours time course)?
**A.** ~14 Fold

**Q.** And the “change of potency with incubation time / release profile” value (EP2 prostanoid receptor)?
**A.** potency decreases with increasing incubation time

**Q.** And the “Max cAMP level (Fold)” value (EP2 prostanoid receptor; effect of nebulization study (FIG. 6), head prints (5 μM))?
**A.** ~15 Fold

**Q.** And the “time by which measurable levels of TRE were not seen in the lungs” value [3]?
**A.** < 6 h

**Q.** What about the “time to which measurable levels of TRE were seen in the blood plasma” value [3] of the same compound?
**A.** ≤ 4 h

**Q.** What about the “time by which plasma treprostinil was below the level of quantification” value ([4]; both, beagle) of the same compound?
**A.** ≤ 4 h

**Q.** What about the “treprostinil plasma Cmax relative to similar inhaled doses of T623” value ([4]; both, beagle) of the same compound?
**A.** 15-20 fold

**Q.** What about the “period over which plasma levels of treprostinil were sustained” value [4] of the same compound?
**A.** disappeared within a few hours

**Q.** And the “exposure concentration consistently evoking cough” value (cough reflex; guinea pigs, aerosol 10 min.)?
**A.** ≥ 30 µg/mL

**Q.** And the cough bouts (cough reflex; [7])?
**A.** 1-4

**Q.** And the “guinea pigs with cough” value (cough reflex; [7])?
**A.** 7 of 7

**Q.** What about the “total number of coughs” value (cough reflex; [7]) of the same compound?
**A.** 36+9 coughs

**Q.** Which results are given for hexadecyl-treprostinil [C16-TR]?
**A.** change of potency with incubation time / release profile (EP2 prostanoid receptor): increases with incubation time; ranking of activity of the treprostinil compounds (EP2 prostanoid receptor; unformulated compounds, 10 μM and 5 μM, FIG. 21): C12-TR>C14-TR>5-nonanyl-TR>C16-TR; release kinetics of treprostinil over 24 hours [5]: independent of dose; adverse clinical signs in the dose-response study [4]: adverse clinical signs were seen in only 1 dog; tolerability, body weights and organ weights [6]: no tolerability issues or significant changes (relative to PBS) in body weights and organ weights; also recorded: well tolerated
